The values below come from paper PMC10586451, “Design, Synthesis, Pharmacological Activities, Structure–Activity Relationship, and In Silico Studies of Novel 5-Substituted-2-(morpholinoimino)-thiazolidin-4-ones” (ACS Omega, 2023).

A short description of assay [1]: ABTS cation radical scavenging assay. As to conditions: mean ± SEM of three parallel measurements. The protocol:
(§1) DMSO solutions of four different concentrations (12.5, 25, 50, and 100 μM) of the synthesized compound 1–26 were prepared. DMSO was used as a control, while BHA and α-TOC were used as antioxidant standards.

For the next assay, the target named is urease (Canavalia ensiformis, UniProt P07374). Description: biochemical. The settings on record: urease activity IC50, mean ± SEM of three parallel measurements.
For assay [2], the target named is T1, butyrylcholinesterase (BChE) (Equus caballus, UniProt P81908).
T1 construct: butyrylcholinesterase (BChE) from horse serum; from tissue; host or cells: horse serum
Nature of the assay: biochemical. The settings on record: for SI for BChE: Selectivity index: IC50 for AChE/IC50 for BChE; for IC50: mean ± SEM of three parallel measurements. The protocol: (§2) Anticholinesterase activity of all was performed according to the Ellman’s method using a 96-well microplate reader. Acetylcholinesterase (AChE) from electric eel and butyrylcholinesterase (BChE) from horse serum were used. Acetylthiocholine iodide and butyrylthiocholine chloride were utilized as substrates. DTNB (5,50-dithiobis(2-nitrobenzoic) acid was used as a coloring agent to measure the anticholinesterase activity.[43] Measurements were obtained in triplicate.

In assay [3] the target is T2, Acetylcholinesterase (AChE) (Electrophorus electricus, UniProt O42275).
T2 construct: Acetylcholinesterase (AChE) from electric eel; from tissue; host or cells: electric eel
Description: biochemical. As to conditions: for SI for AChE: Selectivity index: IC50 for BChE/IC50 for AChE; for IC50: mean ± SEM of three parallel measurements. The protocol:
as §2

The nature of assay [4]: β-carotene-linoleic acid assay (antioxidant). As to conditions: mean ± SEM of three parallel measurements. The protocol:
as §1

The nature of assay [5]: CUPRAC assay (Cu(II) reducing power). The settings on record: concentration at 0.500 absorbance; mean ± SEM. The protocol: as §1
The nature of assay [6]: DPPH radical scavenging assay. The settings on record: mean ± SEM of three parallel measurements. The protocol:
as §1

Another assay deals with tyrosinase. The assay is classed as biochemical. The settings on record: mean ± SEM of three parallel measurements.

Structures are written as SMILES. Values joined by “and” are separate entries in the source; they are usually repeats but may differ in a detail not shown here. Equal entries are not always repeated.

T2 sequence (O42275 24-633): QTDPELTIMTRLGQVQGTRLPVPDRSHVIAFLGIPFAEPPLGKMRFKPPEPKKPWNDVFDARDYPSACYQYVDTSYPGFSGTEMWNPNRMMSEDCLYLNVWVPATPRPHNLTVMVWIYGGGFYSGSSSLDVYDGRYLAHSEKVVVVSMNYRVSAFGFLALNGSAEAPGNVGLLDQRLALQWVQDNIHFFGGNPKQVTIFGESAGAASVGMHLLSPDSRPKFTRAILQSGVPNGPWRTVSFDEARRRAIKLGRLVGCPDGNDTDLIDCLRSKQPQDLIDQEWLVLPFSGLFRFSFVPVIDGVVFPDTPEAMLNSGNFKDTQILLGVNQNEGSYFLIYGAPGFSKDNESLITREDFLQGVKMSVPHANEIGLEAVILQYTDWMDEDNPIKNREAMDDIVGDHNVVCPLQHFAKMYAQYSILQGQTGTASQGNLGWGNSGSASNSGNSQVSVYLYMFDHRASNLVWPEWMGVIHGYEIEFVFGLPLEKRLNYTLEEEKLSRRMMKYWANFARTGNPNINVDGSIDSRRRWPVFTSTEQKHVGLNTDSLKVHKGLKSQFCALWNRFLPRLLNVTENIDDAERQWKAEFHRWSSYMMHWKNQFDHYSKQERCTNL
T1 sequence (P81908 whole entry): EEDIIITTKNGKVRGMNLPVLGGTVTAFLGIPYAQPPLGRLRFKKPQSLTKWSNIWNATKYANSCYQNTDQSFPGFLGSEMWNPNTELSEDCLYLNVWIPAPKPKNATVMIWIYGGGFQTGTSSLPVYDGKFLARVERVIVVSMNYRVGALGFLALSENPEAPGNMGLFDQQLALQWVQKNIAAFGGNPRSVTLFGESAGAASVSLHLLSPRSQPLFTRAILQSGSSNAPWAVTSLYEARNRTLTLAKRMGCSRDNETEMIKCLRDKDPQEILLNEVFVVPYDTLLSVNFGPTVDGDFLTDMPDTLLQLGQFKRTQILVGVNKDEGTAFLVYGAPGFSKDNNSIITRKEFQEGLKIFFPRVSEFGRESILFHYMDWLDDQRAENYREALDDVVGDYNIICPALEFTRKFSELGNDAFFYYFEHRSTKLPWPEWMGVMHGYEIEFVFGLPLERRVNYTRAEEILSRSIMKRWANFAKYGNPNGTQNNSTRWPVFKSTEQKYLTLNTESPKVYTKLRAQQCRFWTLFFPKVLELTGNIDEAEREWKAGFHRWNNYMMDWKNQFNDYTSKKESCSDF
Chain of urease (P07374 whole entry, looked up): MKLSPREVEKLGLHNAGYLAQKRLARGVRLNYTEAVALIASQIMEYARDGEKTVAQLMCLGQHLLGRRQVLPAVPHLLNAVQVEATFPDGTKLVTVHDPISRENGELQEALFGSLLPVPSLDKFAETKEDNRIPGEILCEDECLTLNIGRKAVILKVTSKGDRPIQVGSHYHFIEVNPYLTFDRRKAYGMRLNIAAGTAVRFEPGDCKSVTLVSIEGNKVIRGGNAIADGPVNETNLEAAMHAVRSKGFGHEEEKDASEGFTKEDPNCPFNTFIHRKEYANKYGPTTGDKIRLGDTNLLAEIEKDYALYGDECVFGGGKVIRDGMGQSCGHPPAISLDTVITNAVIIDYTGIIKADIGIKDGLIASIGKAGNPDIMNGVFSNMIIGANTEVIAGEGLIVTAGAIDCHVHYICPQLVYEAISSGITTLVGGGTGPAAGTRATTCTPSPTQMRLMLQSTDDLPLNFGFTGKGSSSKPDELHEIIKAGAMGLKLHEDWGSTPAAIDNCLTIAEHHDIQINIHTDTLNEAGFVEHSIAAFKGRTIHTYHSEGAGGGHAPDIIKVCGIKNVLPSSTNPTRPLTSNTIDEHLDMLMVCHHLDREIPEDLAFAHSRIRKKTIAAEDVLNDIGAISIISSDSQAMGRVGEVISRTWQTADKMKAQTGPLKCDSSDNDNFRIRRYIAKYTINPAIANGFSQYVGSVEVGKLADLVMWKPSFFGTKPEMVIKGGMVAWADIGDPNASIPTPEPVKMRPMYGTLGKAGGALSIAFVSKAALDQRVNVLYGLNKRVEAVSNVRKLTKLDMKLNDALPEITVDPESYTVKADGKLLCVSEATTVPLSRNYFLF

Take `O=C1C(=Cc2ccco2)SC(=NN2CCOCC2)N1c1ccccc1` [Compound 15, 5-(Furan-2-ylmethylene)-2-(morpholinoimino)-3-phenylthiazolidin-4-one]: the concentration for half-maximal inhibition (IC50) in assay [1] came to 32.2 ± 0.87 µM; on urease, 46.4 ± 1.08 µM; in assay [2], 37.6 ± 0.61 µM; in assay [3] it was 27.4 ± 0.76 µM; in assay [4] it was 29.7 ± 0.34 µM; in assay [6] it was 35.05 ± 0.29 µM. For the same compound, on tyrosinase, half-maximal inhibition (IC50) was put at 5190 ± 30 µM. Besides, the “SI for BChE” value in assay [2] came out at 0.73. Further, in assay [3], the “SI for AChE” value amounted to 1.37. In addition, the “CUPRAC assay A0.5” value in assay [5] was 31.24 ± 0.00 µM.

Consider `O=C1C(=Cc2ccsc2)SC(=NN2CCOCC2)N1c1ccccc1` [Compound 16, 2-(Morpholinoimino)-3-phenyl-5-(thiophen-3-ylmethylene) thiazolidine-4-one], for which the IC50 in assay [1] was determined as 35.7 ± 1.61 µM; at urease, 42 ± 0.81 µM; in assay [2], 42.5 ± 0.18 µM; in assay [3], 29 ± 1.03 µM; in assay [4] it was 31.4 ± 1.01 µM; in assay [6], 36.21 ± 0.17 µM. At tyrosinase, this compound returned an IC50 of 24080 ± 150 µM. In assay [2], the “SI for BChE” value turned out to be 0.69. Also, the “SI for AChE” value in assay [3] amounted to 1.46. In assay [5], the “CUPRAC assay A0.5” value is 16.94 ± 0.01 µM.

Take `Cc1ccsc1C=C1SC(=NN2CCOCC2)N(c2ccccc2)C1=O` [Compound 17, 5-((3-Methylthiophene-2-yl)methylene)-2-(morpholinoimino)-3-phenylthiazolidin-4-one]: the 50% inhibitory concentration (IC50) was 33.2 ± 0.65 µM in assay [1]; 40.22 ± 0.12 µM against urease; 49.8 ± 1.01 µM in assay [2]; 34.8 ± 0.53 µM in assay [3]; 36 ± 0.58 µM in assay [4]; 36 ± 1 µM in assay [6]. Half-maximal inhibition against tyrosinase (IC50) was put at 3220 ± 700 µM. Moreover, the “SI for BChE” value in assay [2] is given as 0.70. For the same compound, the “SI for AChE” value in assay [3] was found to be 1.43. Further, the “CUPRAC assay A0.5” value in assay [5] is 27.65 ± 0.01 µM.

As for `O=C1C(=Cc2ccc[nH]2)SC(=NN2CCOCC2)N1c1ccccc1` [Compound 18, 5-((1H-Pyrrol-2-yl)methylene)-2-(morpholinoimino)-3-phenylthiazolidin-4-one], the half-inhibitory concentration (IC50) in assay [1] worked out at 31.04 ± 0.17 µM; at urease, 20.2 ± 0.77 µM; in assay [2], 32.9 ± 0.75 µM; in assay [3], 21.4 ± 0.92 µM; in assay [4] it was 33.62 ± 0.04 µM; in assay [6], 35.07 ± 0.03 µM. This compound displayed a 50% inhibitory concentration (IC50) against tyrosinase of 16000 ± 410 µM. For the same compound, the “SI for BChE” value in assay [2] was found to be 0.65. For the same compound, in assay [3], the “SI for AChE” value turned out to be 1.54. In assay [5], the “CUPRAC assay A0.5” value was found to be 26.60 ± 0.02 µM.

With `Cn1cccc1C=C1SC(=NN2CCOCC2)N(c2ccccc2)C1=O` [Compound 19], the half-inhibitory concentration (IC50) in assay [1] was 29.88 ± 0.2 µM; on urease it was 18.2 ± 0.5 µM; in assay [2] it was 29.7 ± 0.72 µM; in assay [3] it was 20.6 ± 0.55 µM; in assay [4], 30.8 ± 0.47 µM; in assay [6], 34.45 ± 0.05 µM. The compound also gave a concentration for half-maximal inhibition (IC50) against tyrosinase of 19280 ± 90 µM. In addition, in assay [2], the “SI for BChE” value was 0.69. In addition, the “SI for AChE” value in assay [3] is recorded as 1.44. The “CUPRAC assay A0.5” value in assay [5] is 25.67 ± 0.00 µM.

On to `O=C1C(=Cc2nccs2)SC(=NN2CCOCC2)N1c1ccccc1` [Compound 20], for which the IC50 in assay [1] came out at 31.3 ± 0.77 µM; against urease it was 16.8 ± 0.19 µM; in assay [2] it was 34.05 ± 0.06 µM; in assay [3], 26.8 ± 0.77 µM; in assay [4], 32.8 ± 0.33 µM; in assay [6], 35.2 ± 0.6 µM. In addition, half-maximal inhibition against tyrosinase (IC50) was put at 21400 ± 310 µM. In addition, in assay [2], the “SI for BChE” value came out at 0.79. The “SI for AChE” value in assay [3] came out at 1.26. The “CUPRAC assay A0.5” value in assay [5] amounted to 36.95 ± 0.03 µM.

As to `O=C1C(=Cc2ccccn2)SC(=NN2CCOCC2)N1c1ccccc1` [Compound 21, 2-(Morpholinoimino)-3-phenyl-5-(pyridin-2-ylmethylene)thiazolidin-4-one], the half-inhibitory concentration (IC50) in assay [1] was 30.7 ± 0.56 µM; on urease, 27.8 ± 0.51 µM; in assay [2], 28.1 ± 0.55 µM; in assay [3] it was 20.6 ± 1.02 µM; in assay [4], 31.5 ± 0.48 µM; in assay [6], 35.01 ± 0.01 µM. The half-maximal inhibitory concentration (IC50) against tyrosinase is 11200 ± 390 µM. The “SI for BChE” value in assay [2] turned out to be 0.73. Moreover, the “SI for AChE” value in assay [3] stood at 1.36. Further, in assay [5], the “CUPRAC assay A0.5” value stood at 30.77 ± 0.00 µM.

On to `O=C1C(=Cc2cccnc2)SC(=NN2CCOCC2)N1c1ccccc1` [Compound 22, 2-(Morpholinoimino)-3-phenyl-5-(pyridin-3-ylmethylene)thiazolidin-4-one], for which the IC50 came to 30.11 ± 0.28 µM in assay [1]; 26.2 ± 0.47 µM against urease; 33 ± 0.84 µM in assay [2]; 24.8 ± 0.3 µM in assay [3]; 31.6 ± 0.79 µM in assay [4]; 34.77 ± 0.22 µM in assay [6]. On tyrosinase, this compound displayed a 50% inhibitory concentration (IC50) of 9130 ± 550 µM. Besides, in assay [2], the “SI for BChE” value was determined as 0.75. In addition, in assay [3], the “SI for AChE” value was found to be 1.33. In assay [5], the “CUPRAC assay A0.5” value came out at 30.42 ± 0.01 µM.

`O=C1C(=Cc2ccncc2)SC(=NN2CCOCC2)N1c1ccccc1` [Compound 23, 2-(Morpholinoimino)-3-phenyl-5-(pyridin-4-ylmethylene)thiazolidin-4-one]: the IC50 turned out to be 32.72 ± 0.19 µM in assay [1]; 25 ± 0.54 µM against urease; 25.4 ± 0.26 µM in assay [2]; 19.7 ± 0.54 µM in assay [3]; 34.6 ± 0.5 µM in assay [4]; 36.14 ± 0.16 µM in assay [6]. The compound also had an IC50 against tyrosinase of 8050 ± 110 µM. Besides, in assay [2], the “SI for BChE” value stood at 0.78. The “SI for AChE” value in assay [3] was determined as 1.29. For the same compound, in assay [5], the “CUPRAC assay A0.5” value turned out to be 31.12 ± 0.00 µM.

For `O=C1C(=Cc2c[nH]c3ccccc23)SC(=NN2CCOCC2)N1c1ccccc1` [Compound 24, 5-((1H-Indol-3-yl)methylene)-2-(morpholinoimino)-3-phenylthiazolidin-4-one], the half-maximal inhibitory concentration (IC50) was 30 ± 1.01 µM in assay [1]; 23.6 µM and 22.5 µM against urease; 25.7 ± 0.69 µM in assay [2]; 19.5 ± 0.29 µM in assay [3]; 27.73 ± 0.23 µM in assay [4]; 33.24 ± 0.21 µM in assay [6]. Further, half-maximal inhibition at tyrosinase (IC50) was put at 7210 ± 270 µM. In assay [2], the “SI for BChE” value turned out to be 0.76. Moreover, the “SI for AChE” value in assay [3] was 1.32. Besides, the “CUPRAC assay A0.5” value in assay [5] was found to be 30.04 ± 0.02 µM.

Consider `O=C1C(=Cc2ccc3[nH]ccc3c2)SC(=NN2CCOCC2)N1c1ccccc1` [Compound 25, 5-((1H-Indole-5-yl)methylene)-2-(morpholinoimino)-3-phenylthiazolidin-4-one], for which the half-inhibitory concentration (IC50) in assay [1] is 34.05 ± 0.27 µM; against urease it was 21.7 ± 0.06 µM; in assay [2], 25.5 ± 0.78 µM; in assay [3], 19.8 ± 0.5 µM; in assay [4], 33.6 ± 0.73 µM; in assay [6], 38.2 ± 0.88 µM. Moreover, the IC50 on tyrosinase stood at 8400 ± 640 µM. Further, in assay [2], the “SI for BChE” value is 0.78. Further, the “SI for AChE” value in assay [3] came to 1.29. For the same compound, the “CUPRAC assay A0.5” value in assay [5] was 39.50 ± 0.01 µM.

For the compound `O=C1C(=Cc2ccc3ccccc3n2)SC(=NN2CCOCC2)N1c1ccccc1` [Compound 26, 2-(Morpholinoimino)-3-phenyl-5-(quinolin-2-ylmethylene)thiazolidin-4-one], the IC50 in assay [1] is 26.5 ± 0.63 µM; at urease, 21.5 ± 0.44 µM; in assay [2], 25.7 ± 0.53 µM; in assay [3] it was 19.8 ± 0.37 µM; in assay [4], 22.4 ± 0.3 µM; in assay [6], 29.7 ± 0.9 µM. The compound further came in with an IC50 against tyrosinase of 8760 ± 900 µM. For the same compound, the “SI for BChE” value in assay [2] came out at 0.77. The “SI for AChE” value in assay [3] worked out at 1.30. The “CUPRAC assay A0.5” value in assay [5] is 25.91 ± 0.02 µM.
